Positions count from the first letter of the chain named. Where no end group is shown, it is not given here. 647 dye = not defined here
Tests used:
[1] = molecular target: T1, wild-type apelin receptor (Homo sapiens, UniProt P35414); assay: Saturation radioligand binding, CHO-K1 membranes, wild-type; settings: WT; mean ± SD, n = 3
T1 construct: expressed in transfected cells; host or cells: CHO-K1 (ECACC 85051005), transient, pcDNA3.1
T1 sequence (P35414 1-380): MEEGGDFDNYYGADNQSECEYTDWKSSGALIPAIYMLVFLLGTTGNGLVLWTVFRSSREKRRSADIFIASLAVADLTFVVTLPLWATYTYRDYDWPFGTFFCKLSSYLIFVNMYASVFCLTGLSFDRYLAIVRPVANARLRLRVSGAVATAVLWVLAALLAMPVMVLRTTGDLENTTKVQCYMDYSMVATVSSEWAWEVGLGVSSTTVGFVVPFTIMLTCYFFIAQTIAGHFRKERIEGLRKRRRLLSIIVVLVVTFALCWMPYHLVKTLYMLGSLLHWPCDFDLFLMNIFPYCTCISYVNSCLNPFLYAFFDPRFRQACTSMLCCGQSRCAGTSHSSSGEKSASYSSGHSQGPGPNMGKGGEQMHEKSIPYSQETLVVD
Experimental: (§1) The radiolabel has a specific activity of 2200 Ci/mmol. Plastic-ware used in radioligand binding experiments was coated with Sigmacote, a siliconising reagent that forms a covalent film to reduce sticking of the radiolabel.
(§2) Membrane protein preparations were made by harvesting CHO-K1 cells transiently transfected with wild-type or variant apelin receptor construct into tubes. Tubes were spun at 1000 xg for 10 min at 4 °C to pellet cells, before resuspending and triturating in ice-cold TRIS wash buffer (50 mM TRIS-HCl in deionised water, pH balanced to 7.4 at room temperature) to induce complete hypotonic lysis of cells. Cells were spun a second time at 21,000 × g for 20 min at 4 °C, to obtain a crude membrane fraction. Supernatant was discarded and membrane preparations resuspended in TRIS wash buffer. Cell membrane preparations were stored at –70 °C until use in experiments. Protein concentration of cell membrane preparations was determined using a DC Protein Assay (Bio-Rad), as per the manufacturer’s instructions.
(§3) For binding experiments, membrane preparations were diluted in binding buffer (50 mM TRIS-HCl and 5 mM MgCl2, balanced to pH 7.4 at room temperature) to give a final protein concentration of 1 mg/mL. […] At the end-point, samples were spun in a centrifuge at 20,000 × g for 10 min at 4 °C to terminate equilibrium. […]

[2] = molecular target: T2, V/L38^1.42 variant apelin receptor (Homo sapiens, UniProt P35414, V38L); assay: Saturation radioligand binding, CHO-K1 membranes, V/L38^1.42
T2 construct: expressed in transfected cells; host or cells: CHO-K1, transient, pcDNA3.1
T2 sequence (P35414 1-380 V38L): T1 sequence (P35414 1-380) with V38L
Experimental: as §1, §2, §3

[3] = test system: G/X45^1.49 variant apelin receptor; assay: Saturation radioligand binding, CHO-K1 membranes, G/X45^1.49; set-up: species or system human
Experimental: as §1, §2
(§4) For binding experiments, membrane preparations were diluted in binding buffer (50 mM TRIS-HCl and 5 mM MgCl2, balanced to pH 7.4 at room temperature) to give a final protein concentration of 1 mg/mL. […] At the end-point, samples were spun in a centrifuge at 20,000 × g for 10 min at 4 °C to terminate equilibrium. Supernatant was aspirated, and pellets were resuspended and triturated in 500 μL ice-cold wash buffer, over ice. Samples were spun a second time at 20,000 × g for 10 min at 4 °C, before aspiration of the supernatant. Radioactivity in pellets was counted using a Cobra II model 5003 gamma counter (Packard).
(§5) Saturation binding data were analysed using the EBDA and LIGAND components of the KELL (Kinetic, EBDA, Ligand, Lowry) software package (Biosoft)[58] to generate receptor affinity (KD) and receptor density (Bmax) values. […] Saturation data were presented using the nonlinear one site-specific binding with Hill slope model fitted by GraphPad Prism version 6.07 for Windows (GraphPad Software).

[4] = molecular target: T3, T/M89^2.64 variant apelin receptor (Homo sapiens, UniProt P35414, T89M); assay: Saturation radioligand binding, CHO-K1 membranes, T/M89^2.64; settings: mean ± SD, n = 3
T3 construct: expressed in transfected cells; host or cells: CHO-K1, transient, pcDNA3.1
T3 sequence (P35414 1-380 T89M): T1 sequence (P35414 1-380) with T89M
Experimental: as §1, §2, §3

[5] = molecular target: T4, R/H168^4.64 variant apelin receptor (Homo sapiens, UniProt P35414, R168H); assay: Saturation radioligand binding, CHO-K1 membranes, R/H168^4.64
T4 construct: expressed in transfected cells; host or cells: CHO-K1, transient, pcDNA3.1
T4 sequence (P35414 1-380 R168H): T1 sequence (P35414 1-380) with R168H
Experimental: as §1, §2, §3

[6] = test system: T/X227^5.64 variant apelin receptor; assay: Saturation radioligand binding, CHO-K1 membranes, T/X227^5.64; set-up: species or system human
Experimental: as §1, §2, §4, §5

[7] = test system: untransfected CHO-K1 cells; assay: Saturation radioligand binding, untransfected CHO-K1 membranes
[8] = test system: R/H168^4.64 apelin receptor, hESC; assay: Saturation radioligand binding, R/H168^4.64 hESC membranes; set-up: species or system human
Experimental: as §1, §2, §3

[9] = test system: R/H168^4.64 apelin receptor, hESC-CM; assay: Saturation radioligand binding, R/H168^4.64 hESC-CM membranes; set-up: species or system human
Experimental: as §1, §2, §3

[10] = molecular target: apelin receptor, homogenised human left ventricle; settings: previously determined by saturation analysis in homogenised human left ventricle; cited from earlier work
Experimental: Heart Homogenate. Ethically approved (Research Ethics Committee 05/Q104/142) surgical samples of human left ventricle tissue were obtained with informed consent at the time of operation from Royal Papworth Hospital Tissue Bank and stored at -80°C. Tissues were homogenised using a Polytron Homogenizer (Thomas Scientific), in buff ...

[11] = test system: G/X45^1.49 variant apelin receptor; assay: High content screening, fluorescent ligand binding in transfected CHO-K1 cells, G/X45^1.49; set-up: species or system human; settings: 1 µM, 90 min, mean ± SD, n = 4 in triplicate
Experimental: (§6) Cells were maintained at 37 °C, in humidified air containing 5% CO2.
(§7) High content screening was used to characterise apelin receptor variant expression, membrane localisation, and fluorescent ligand binding. CHO-K1 cells transiently transfected with wild-type or variant apelin receptor construct tagged C-terminally with eGFP were plated at ~10,000/well in CellCarrier-96 Ultra Plates (PerkinElmer). […] Fluorescent ligand was washed out with HBSS, and cells were fixed with 4% formaldehyde for ~3 min. […] After a final wash, cells were maintained in 100 µL HBSS.
(§8) Cells maintained in the 96-well plates were imaged on an Opera Phenix High Content Screening System (PerkinElmer), a highly sensitive, dual-camera spinning disk confocal fluorescent imaging platform, using a 40x/NA1.1 water immersion objective. […] Three fluorescent channels were used. […] For all channels, excitation laser intensity was set at 50% power, with a 50 ms exposure time. Additionally, each imaging field was imaged using bright-field and digital phase contrast (DPC). […]
(§9) Mean membrane fluorescence was then quantified for the green channel as an indication of membrane protein expression, and for the red channel as an indication of fluorescent ligand binding.

[12] = test system: T/X227^5.64 variant apelin receptor; assay: High content screening, fluorescent ligand binding in transfected CHO-K1 cells, T/X227^5.64; set-up: species or system human; settings: 1 µM, 90 min, mean ± SD, n = 4 in triplicate
Experimental: as §6, §7, §8, §9

[13] = 90 min, room temperature, pH 7.4

## CCCC[C@H](NC(=O)[C@@H]1CCCN1C(=O)CNC(=O)[C@H](CCCCN)NC(=O)[C@H](Cc1c[nH]cn1)NC(=O)[C@H](CO)NC(=O)[C@H](CC(C)C)NC(=O)[C@H](CCCNC(=N)N)NC(=O)[C@@H]1CCCN1C(=O)[C@H](CCCNC(=N)N)NC(=O)[C@@H]1CCC(=O)N1)C(=O)N1CCC[C@H]1C(=O)N[C@@H](Cc1ccc(O)c(I)c1)C(=O)O [[^125I]-apelin-13]
[1]
  Bmax: 236.80 ± 27.07 fmol/mg
  Hill slope (nH): 1.26 ± 0.22
[2]
  Bmax: NBD
  Hill slope (nH): NBD
[3]
  Bmax: NBD
  Hill slope (nH): NBD
[3]; [13]
  KD: NBD
[4]
  Bmax: 440.47 ± 38.36 fmol/mg
  Hill slope (nH): 1.55 ± 0.22
[5]
  Bmax: NBD
  Hill slope (nH): NBD
[6]
  Bmax: NBD
  Hill slope (nH): NBD
[6]; [13]
  KD: NBD
[7]
  Bmax: NBD
  Hill slope (nH): NBD
[7]; [13]
  KD: NBD
[8]
  [125I]-apelin-13 binding versus wild-type: significantly reduced
[9]
  [125I]-apelin-13 binding versus wild-type: significantly reduced
[10]
  Kd: 0.076 nM

## ELA647: fluorescently labelled ELA peptide ({647 dye}-QRPVNLTMRRKLRKHNCLQRRCMPLHSRVPFP; ends and bridges not checked; UniProt P0DMC3 23-54, looked up)
[11]
  Mem. ELA647: 20.73 ± 12.55 % WT
[12]
  Mem. ELA647: 14.83 ± 7.02 % WT

— PMC11680790, “Structural and functional determination of peptide versus small molecule ligand binding at the apelin receptor” (Nature Communications, 2024)
